We go through 24 molecules from patent US20080161324A1, “Compositions and methods for treatment of viral diseases” (priority 2006, published 2008).

Counter-ions that a name gives are not always drawn. Like-named read-outs stand apart in the source and are kept apart here. Marks after values point to notes of the source that are not given here.

For data set [1], the system named is Huh7 cells expressing a subgenomic RNA replicon of Con1 (genotype 1b) sequence origin. Description: microbe, parasite or virus in culture. It is filed as cell-based, HCV.
A further data set concerns HER1-2. To be noted: selective HER1 inhibitor (vs. HER1-2); cited from earlier work.
For data set [2] the following is noted: in words; cited from earlier work.
Setting [3] is: Hepatitis C virus, Huh-7, 48 h; read-out: IC50.
Setting [4] is: Table 1; inhibition of luciferase activity, 48 hours.
The mark [5] stands for this setting: Table 1; inhibition of luciferase activity, 48 hours; read-out: IC50.
Where [6] appears, read: Hepatitis C virus, Huh-7, 48 h; read-out: IC25 (values noted with an asterisk).

Turning to `CC(=O)Nc1ccccc1OCCCCCOCC(=O)Nc1ccccc1` [2′,2″-(Pentamethylenedioxy)diacetanilide], in data set [1] (setting [3]), the concentration for half-maximal inhibition (IC50) (usually the midpoint of a concentration-inhibition curve) was 3.14 µM.

Regarding `CC(=O)Nc1cccc(OCCCCCOc2cccc(NC(C)=O)c2)c1` [3′,3″-(Pentamethylenedioxy)diacetanilide], the “IC25 (values noted with an asterisk)” value in data set [1] (setting [4]) was 9.35*.

In the case of `N#C/C(=C\c1ccc(O)c(O)c1)C(=O)NCc1ccccc1` [AG-490], the half-inhibitory concentration (IC50) in data set [1] (setting [5]) was found to be 5.03 µM.

With `N#C/C(=C\c1ccc(O)c(O)c1)C(=O)Nc1ccccc1` [AG-494], the IC50 in the data set on HER1-2 was 45 µM.

With `Nc1ncnc2c1ncn2CCOCP(=O)(O)O` [Adefovir (e.g., dipivoxil), Adefovir], in data set [1] (Table 3; inhibition of luciferase activity, 48 hours; read-out: IC50), the concentration for half-maximal inhibition (IC50) came out at 0.319 µM.

For `Cc1ccc(/N=C/N(C)/C=N/c2ccc(C)cc2C)c(C)c1` [Amitraz], in data set [1] (setting [6]), the IC25 (in general, the concentration at which the effect reaches the 25% level) amounted to 26.4 µM.

Take `CC(=O)OC[C@H]1O[C@@H]([S-])[C@H](OC(C)=O)[C@@H](OC(C)=O)[C@@H]1OC(C)=O.CCP(CC)CC.[Au+]` [Auranofin]: in data set [2], the solubility entry was “insoluble in water”.

On to `CC(C)NCC(O)COc1ccc(CCOCC2CC2)cc1` (stereo not drawn) [Betaxolol (e.g., hydrochloride), Betaxolol], for which the IC25 in data set [1] (Hepatitis C virus, Huh-7, 48 h, read-out: IC25 (values noted with an asterisk)) is 29.4 µM.

Turning to `CCCC(=O)O[C@H]1CN2CC[C@H](O)[C@@H]2[C@@H](O)[C@@H]1O` [Celgosivir], the IC25 in data set [1] (setting [6]) was found to be 6.25 µM.

Consider `O=C1[C@H](CC[C@H](O)c2ccc(F)cc2)[C@@H](c2ccc(O)cc2)N1c1ccc(F)cc1` [Ezetimibe], for which the IC50 in data set [1] (setting [3]) turned out to be 4.2 µM.

Turning to `Clc1ccc(C(c2ccccc2Cl)C(Cl)Cl)cc1` (stereo not drawn) [Mitotane], the IC25 in data set [1] (setting [6]) amounted to 28.1 µM.

Consider `COc1ccc(C(=O)NCc2cccnc2)cc1C(=O)NCc1cccnc1` [Picotamide], for which, in data set [1] (setting [6]), the concentration for an effect of 25% (IC25) worked out at 28.7 µM.

In the case of `CCCCOc1ccc(OCCCN2CCOCC2)cc1` [Pramoxine (e.g., hydrochloride), Pramoxine], the IC25 in data set [1] (setting [6]) is 5.17 µM.

Take `COc1ccc(CCN(C)CCCC(C#N)(c2ccc(OC)c(OC)c2)C(C)C)cc1OC` (stereo not drawn) [R(+)-Verapamil (e.g., hydrochloride), R(+)-Verapamil]: the IC50 in data set [1] (Hepatitis C virus, Huh-7, 48 h) was 15.7 µM.

With `CC(C)=CC[C@@H](O)C1=CC(=O)c2c(O)ccc(O)c2C1=O` [Shikonin], the IC25 in data set [1] (setting [6]) is 26.4 µM.

Consider `CO[C@H]1C[C@@H]2CC[C@@H](C)[C@@](O)(O2)C(=O)C(=O)N2CCCC[C@H]2C(=O)O[C@H]([C@H](C)C[C@@H]2CC[C@@H](O)[C@H](OC)C2)CC(=O)[C@H](C)/C=C(\C)[C@@H](O)[C@@H](OC)C(=O)[C@H](C)C[C@H](C)/C=C/C=C/C=C/1C` [Sirolimus], for which, in data set [1] (setting [6]), the IC25 came out at 0.005 µM.

Regarding `N#C/C(=C\c1ccc(O)c(O)c1)C(N)=S` [Tyrphostin 47], the “IC25 (values noted with an asterisk)” value in data set [1] (setting [4]) was 18.3*.

In the case of `O=C1CC(=O)c2c(Cl)c(Cl)c(Cl)c(Cl)c21` [UCH-L3 inhibitor], in data set [1] (Table 1; inhibition of luciferase activity, 48 hours; in µM), the “IC25 (values noted with an asterisk)” value is reported as 19.7*.

For the molecule Beta Escin, the IC50 in data set [1] (setting [5]) amounted to 4.27 µM.

For the molecule Chlorophyllin, the IC50 in data set [1] (setting [5]) was found to be 1.3 µM.

As for Gramicidin, the IC50 in data set [1] (setting [5]) worked out at 0.017 µM.

Regarding Manganese gluconate, in data set [1] (read-out: IC50), the IC50 was determined as 24.7 µM.

Take Tunicamycin: the IC50 in data set [1] (Table 2; inhibition of luciferase activity, 48 hours; read-out: IC50) was 0.107 µM.

For the molecule Vitamin B12, in data set [1] (setting [5]), the IC50 is 8.28 µM.
